From patent US8937066B2, “Amino derivatives of dihydro-1,3,5-triazine used in the treatment of ischemia and/or reperfusion related diseases” (Poxel, priority 2009, dated 2015)

Assays:
[1] = test system: human immortalized microvascular dermal endothelial cells HMEC-1; experiment: Mitochondrial membrane potential (TMRM, confocal microscopy) after ischemia/reperfusion; type: cell-based; conditions: 10 mM for 30 min; for mitochondrial membrane potential after reperfusion: then 60 min ischemia and 90/120 min reperfusion
Procedure: The objective of this study is to evaluate the protective effect of the compound E 008 on vascular injury due to ischemia/reperfusion, by measuring the effect of E 008 on loss of mitochondrial membrane potential induced by ischemia/reperfusion.
The line of human immortalized microvascular dermal endothelial cells HMEC-1 was used.
The cells were treated according to the following scheme: • control group: no treatment, followed by ischemia of 60 min and reperfusion of 120 min. • metformin group: incubation with metformin at a concentration of 10 mM for 30 min, followed by ischemia of 60 min and reperfusion of 120 min. • E 008 group: incubation with the compound E 008 at a concentration of 10 mM for 30 min followed by ischemia of 60 min and reperfusion of 120 min. Measurement of Mitochondrial Membrane Potential
In order to measure the mitochondrial potential, the cells were incubated, throughout the above treatment, with the fluorescent probe tetramethylrhodamine methyl ester (TMRM) at a concentration of 30 nM.
They were analyzed in confocal microscopy before treatment, after 60 min of ischemia, after 90 min of reperfusion and after 120 min of reperfusion (FIG. 1).

[2] = test system: complex I of the respiratory chain of endothelial cells; experiment: ROS production by complex I of the respiratory chain; type: cell-based; conditions: by inhibiting reverse electron flow
[3] = test system: infarct size / area at risk; experiment: Model of myocardial infarction in the rabbit (30 min coronary occlusion, 4 h reperfusion); type: in vivo; conditions: for AN (area of necrosis) / AN/AR / AN/LV: group mean (extent of values)
Procedure: Male New Zealand albino rabbits weighing between 2.2 and 2.5 kg were anesthetized by intramuscular injection of xylazine (5 mg/kg) and ketamine (50 mg/kg). An intravenous infusion of a mixture of xylazine (20 to 50 μg/kg/min) and ketamine (40 to 100 μg/kg/min) was maintained throughout the test.
After a median cervical incision, a tracheotomy was performed and the animals were ventilated with ambient air. A cannula was inserted in the right internal jugular vein for administration of the medicinal products and fluids and in the left carotid artery for measurement of blood pressure. After an intravenous bolus administration of fentanyl ([…]), a left thoracotomy was performed at the level of the fourth left intercostal space. The pericardium was opened and the heart was exposed. A 3.0 suture thread attached to a small curved needle was passed around a marginal branch of the left circumflex coronary artery. The two ends of the thread were passed through a small vinyl tube to form a collar that could be tightened for occluding and released for reperfusing the artery. Body temperature was monitored via an intraperitoneal thermometer and kept constant by means of a heating block. The heart rate and arterial pressure were monitored continuously on a Gould recorder (Gould Inc., Cleveland, Ohio).
After surgery, a period of stabilization of 15 minutes was observed.
The rabbits are randomly distributed into 4 groups. All the animals undergo a prolonged occlusion of 30 minutes of the coronary artery, followed by 4 hours of reperfusion. Five minutes before reperfusion, the rabbits receive an intravenous injection of either: • a vehicle (volume corresponding to dose 1 or 2 of E 008) (Control, C), • E 008 at dose 1, • E 008 at dose 2, • of ciclosporin A (CsA) at 10 mg/kg.
The sample size is 8 to 10 animals per group. In these groups, the hearts were collected at the end of the period of 4 hours of reperfusion for subsequent evaluation of infarct size.
After 4 hours of reperfusion, the coronary artery was briefly reoccluded and 0.5 mg/kg of Uniperse blue pigment (Ciba-Geigy®, Hawthorne N.Y.) was injected intravenously for delimiting the area at risk in viva With this technique, the previously nonischemic myocardium appears blue, whereas the previously ischemic myocardium (area at risk) remains unstained.
The anesthetized rabbits were then euthanized by intravenous injection of pentobarbital. The heart was excised and cut into transverse slices with thickness of 5 to 6 mm, parallel to the atrioventricular sulcus. After removing the tissue of the right ventricle, each slice was weighed. The basal surface of each slice was photographed for later measurement of the area at risk. Each slice was then incubated for 15 minutes in a 1% solution of triphenyltetrazolium chloride at 37° C. for differentiating the myocardial zones that were infarcted (pale) and viable (brick red). The slices were then photographed again. Magnified projections of these slices were traced for determining the boundaries of the area at risk (AR) and of the area of necrosis (AN). The extent of these areas at risk and of necrosis was quantified by planimetry by computer and corrected relative to the weight of the tissue slices. The total weights of the area at risk and of the area of necrosis were then calculated and expressed in grams and as a percentage of total left ventricle (LV) and of the weight of the area at risk, respectively. […] Evaluation of infarct size was performed blind.
The results are presented in the following table in the form of value averaged for all the animals of a group, the figure in parentheses representing the extent of the values measured for the different animals.

[4] = E 008 1 mg/kg i.v. 5 min before reperfusion
[5] = E 008 5 mg/kg i.v. 5 min before reperfusion

| Compound | mitochondrial membrane potential after reperfusion [1] | protective effect against loss of membrane potential compared with metformin ([1]; then 60 min ischemia and 120 min reperfusion) | production of ROS by complex I of the respiratory chain [2] | AN (area of necrosis) [3, 4] | AN/AR [3, 4] | AN/LV [3, 4] | protection in the model of myocardial infarction ([3]; E 008 5 mg/kg i.v.) | AN (area of necrosis) [3, 5] | AN/AR [3, 5] | AN/LV [3, 5] | infarct size relative to ciclosporin A ([3]; E 008 5 mg/kg i.v. vs CsA 10 mg/kg) | infarct size relative to the control ([3]; i.v. 5 min before reperfusion, dose not given) |
| --- | --- | --- | --- | --- | --- | --- | --- | --- | --- | --- | --- | --- |
| CC1N=C(N)NC(N(C)C)=N1 (stereo not shown) [E 008] | protected from the damage due to reperfusion | better protective effect | reduce the production of ROS | 0.31 (±0.15) g | 33.9 (±12.2) % | 11.8 (±5) % | significant protection | 0.21 (±0.09) g | 29.4 (±10.3) % | 8.3 (±3.7) % | reduction in infarct size relative to ciclosporin A | significant reduction in infarct size |
| CN(C)C(=N)N=C(N)N [metformin, reference compound] | protected from the damage due to reperfusion |  |  |  |  |  |  |  |  |  |  |  |
